Source: patent US8461186B2, “Use of N-piperidine derivatives for the treatment of neurodegenerative pathologies” (Medestea Research & Production S.p.A., priority 2004, dated 2013)
Like-named read-outs stand apart in the source and are kept apart here.

Tests used:
[1] = tested on: myocardial ischaemia and reperfusion (I/R) in the rat; experiment: Myocardial lesion due to ischaemia and reperfusion (LAD occlusion): size of the infarct; format: in vivo; settings: 10 mg/kg bolus 5 minutes prior to reperfusion, then 2 mg/kg/h; LAD occlusion 25 minutes, reperfusion 2 hours; p<0.01 (FIG. 1)
Description: The in vivo model of myocardial lesion due to ischaemia and reperfusion was selected as the most suitable for checking the efficacy of the compounds MP1002 and MP1001 according to the invention.
Male Sprague Dawley rats (220-230 g) were kept on a standard laboratory diet supplemented with “Nossan Pellets” (Nossan Company, Milan, Italy) and were housed for three weeks prior to the tests (relative humidity 50%±10, temperature 22° C.±1 and light/darkness cycle of 12/12 hours with first light at 7.30 a.m.); food and water were available ad libitum.
The rats (twenty per group) were anaesthetized by intraperitoneal injection of chloral hydrate (380 mg/kg) and were then tracheotomized, intubated and ventilated with ambient air by a suitable ventilator; body temperature was kept at 38° C.±1 and the right carotid artery was cannulated and connected to a pressure transducer to monitor the mean arterial blood pressure (MAP). […]
The coronary artery was occluded by tightening the occluder, a procedure which is correlated with the electrocardiographic and haemodynamic changes (drop in MAP) which are typical of myocardial ischaemia. […] The heart rate (HR) and MAP were monitored continuously. […]

[2] = tested on: rats receiving Paraquat into Substantia Nigra; format: in vivo, rat; settings: for deaths of rats: 120 mg/kg intraperitoneally 5 minutes prior to, simultaneously with, or 5 minutes after 50 μg Paraquat; for signs of alterations during continuous monitoring / survival for a further 24 hours: Paraquat (50 μg) microinfused simultaneously with 1 μg compound; for capacity to cross the blood-brain barrier (BBB): concluded from protection after intraperitoneal administration; for protection against the behavioural and neuropathological effects induced by Paraquat: intracerebral and peripheral administration
Text: The Paraquat/rat/PS experimental model was therefore selected as the most indicative for checking the efficacy of chemical compounds according to the present invention; of these, two anti-oxidants designated MP1002 and MP1001 were used in the tests:
Male Sprague Dawley rats (210-220 g weight) were kept on a standard laboratory diet supplemented with “Nossan Pellets” (both the animals and the pellets are available from Nossan Company, Milan, Italy) and were housed for three weeks (relative humidity 50%±10%, temperature 22° C.±1 and in a light/darkness cycle of 12 hours/12 hours, with first light at 7.30 a.m.) prior to the tests; food and water were available ad libitum.
Prior to treatment, the rats were anaesthetized by intraperitoneal injection of 380 mg/kg weight of chloral hydrate; a stainless steel guide cannula (size 25) was implanted unilaterally in the Substantia Nigra with stereotaxic guiding and was secured to the cranium with dental acrylic material.
The animals (20 per test group) were allowed a recovery period of seven days prior to treatment; during this period no change in motor activity or posture was observed. Microinfusions were performed by means of a 10 μl Hamilton syringe connected to an injection cannula by means of a Teflon tube. The compounds or the vehicle (0.8% NaCl) were injected at a total volume of 1 μl/minute.
Microinfusion of 50 μg of Paraquat into the Substantia Nigra (n=20 rats) led to an increase in motor activity with the animals performing jumps and moving in circles in a contralateral direction relative to the injection position, about 24 minutes later; all of the animals were dead 24±2.5 hours after infusion. A further twenty animals were infused with Paraquat and twenty with Paraquat plus vehicle; about ten of the animals for each group survived 20 hours after treatment and were used to determine the development of lipid peroxidation in the Substantia Nigra.

[3] = tested on: lipid peroxidation in the Substantia Nigra; format: in vivo; settings: for Lipid Peroxidation: Substantia Nigra, 24 hours; for lipid peroxidation in the Substantia Nigra: treatment before, with, or after infusion with Paraquat, p<0.01
Description: Microinfusion of 50 μg of Paraquat into the Substantia Nigra (n=20 rats) led to an increase in motor activity with the animals performing jumps and moving in circles in a contralateral direction relative to the injection position, about 24 minutes later; all of the animals were dead 24±2.5 hours after infusion. […]
(§1) […]. Enzymol. 52, 302-310, 1978.

[4] = tested on: lipid peroxidation in the heart tissue; experiment: Malondialdehyde (MDA) in the heart tissue in myocardial ischaemia and reperfusion; format: in vivo, rat; settings: I/R rats, 10 mg/kg bolus then 2 mg/kg/h; p<0.01 (FIG. 2)
Description: as §1
The following test groups were considered: a) LAD occlusion (25 minutes) and reperfusion (2 hours) plus administration of the vehicle (saline solution, 3 ml/kg-v-bolus plus 1.8 ml/kg/h) starting 5 minutes after reperfusion and maintained during the reperfusion period; b) LAD occlusion and reperfusion plus administration of MP1002 or MP1001 (10 mg/kg injection in bolus) 5 minutes prior to reperfusion, followed by infusion of 2 mg/kg/h during the reperfusion period; c) sham operation (no LAD occlusion) and infusion of the vehicle; d) sham operation and infusion of MP1002 or MP1001 as described above.
The malondialdehyde (MDA) in the heart tissue as final peroxidation product of the cell membrane lipids was also determined as described above.

[5] = 50 μg paraquat by microinfusion, 5 minutes later 100 mg/kg b.w. intraperitoneal
[6] = pretreated intraperitoneally 120 mg/kg b.w., after 5 minutes paraquat (50 μg) by microinfusion
[7] = simultaneous microinfusion into Substantia Nigra of paraquat (50 μg) with 1 μg compound
[8] = simultaneously 50 μg paraquat by microinfusion and 120 mg/kg b.w. intraperitoneal
[9] = pretreated intraperitoneally 120 mg/kg b.w., after 5 minutes paraquat (50 μg)
[10] = simultaneous microinfusion of paraquat (50 μg) with 1 μg compound

Compound	reduction in the size of the infarct compared with the control [1] [%]	Duration (seizures) [2, 5]	Latency (seizures) [2, 5]	Mortality [2, 5] [%]	deaths of rats [2]	signs of alterations during continuous monitoring [2]	survival for a further 24 hours [2]	capacity to cross the blood-brain barrier (BBB) [2]	protection against the behavioural and neuropathological effects induced by Paraquat [2]	Duration (seizures) [2, 6]	Latency (seizures) [2, 6]	Mortality [2, 6] [%]	Duration (seizures) [2, 7]	Latency (seizures) [2, 7]	Mortality [2, 7] [%]	Duration (seizures) [2, 8]	Latency (seizures) [2, 8]	Mortality [2, 8] [%]	Lipid Peroxidation [3, 5]	Lipid Peroxidation [3, 9]	further results
CC1(C)CC(OC(=O)CCCCCCCCC(=O)OC2CC(C)(C)N(O)C(C)(C)C2)CC(C)(C)N1O [MP1001, BIS(1-HYDROXYL-2,2,6,6-TETRAMETHYL-4-PIPERIDINYL)DECANDIOATE]	78	No seizures and epileptic discharges	No seizures and epileptic discharges	0	none of the rats died	no signs of alterations were observed	all of the animals survived	cross the blood-brain barrier	protected completely	No seizures and epileptic discharges	No seizures and epileptic discharges	0	No seizures and epileptic discharges	No seizures and epileptic discharges	0	No seizures and epileptic discharges	No seizures and epileptic discharges	0	4.8 ± 0.57 nmol MDA × h^−1 × mg prot^−1	4.7 ± 0.49 nmol MDA × h^−1 × mg prot^−1	Lipid Peroxidation [3, 10]: 5.4 ± 0.84 nmol MDA × h^−1 × mg prot^−1; Lipid Peroxidation [3, 8]: 5.1 ± 0.94 nmol MDA × h^−1 × mg prot^−1; lipid peroxidation in the Substantia Nigra [3]: markedly and significantly (p<0.01) reduced lipid peroxidation; development of lipid peroxidation in heart tissue (MDA) [4]: reduced the development of peroxidation to levels similar to those of the animals that were subjected to sham operations
CC1(C)CC(OC(=O)CCCCCCCCC(=O)OC2CC(C)(C)N(O)C(C)(C)C2)CC(C)(C)N1O [MP1002, bis(1-oxyl-2,2,6,6-tetramethyl-4-piperidinyl)decandioate]	80	No seizures and epileptic discharges	No seizures and epileptic discharges	0	none of the rats died	no signs of alterations were observed	all of the animals survived	cross the blood-brain barrier	protected completely	No seizures and epileptic discharges	No seizures and epileptic discharges	0	No seizures and epileptic discharges	No seizures and epileptic discharges	0	No seizures and epileptic discharges	No seizures and epileptic discharges	0	4.1 ± 0.39 nmol MDA × h^−1 × mg prot^−1	5.2 ± 0.75 nmol MDA × h^−1 × mg prot^−1	Lipid Peroxidation [3, 10]: 4.3 ± 0.63 nmol MDA × h^−1 × mg prot^−1; Lipid Peroxidation [3, 8]: 4.9 ± 0.86 nmol MDA × h^−1 × mg prot^−1; lipid peroxidation in the Substantia Nigra [3]: markedly and significantly (p<0.01) reduced lipid peroxidation; development of lipid peroxidation in heart tissue (MDA) [4]: reduced the development of peroxidation to levels similar to those of the animals that were subjected to sham operations
